The subject of this experiment is Venturia inaequalis. The experiment is described as follows: Venturia test (apples)/preventive. The following applies: preventive spray on young apple plants, evaluated 10 days after inoculation. The experiment is classed as in vivo, Venturia inaequalis on apples. Here is the method:
Venturia Test (Apples)/Preventive
• Solvent: 24.5 parts by weight of acetone • 24.5 parts by weight of dimethylacetamide • Emulsifier: 1 part by weight of alkylaryl polyglycol ether
To produce a suitable preparation of active compound, 1 part by weight of active compound is mixed with the stated amounts of solvent and emulsifier, and the concentrate is diluted with water to the desired concentration. To test for preventive activity, young plants are sprayed with the preparation of active compound at the stated rate of application. After the spray coating has dried on, the plants are inoculated with an aqueous conidia suspension of the causal agent of apple scab (Venturia inaequalis) and then remain for 1 day in an incubation cabinet at approximately 20° C. and a relative atmospheric humidity of 100%. The plants are then placed in a greenhouse at approximately 21° C. and a relative atmospheric humidity of approximately 90%. The test is evaluated 10 days after the inoculation. 0% means an efficacy which corresponds to that of the untreated control, while an efficacy of 100% means that no disease is observed.

As for `COC(c1ccc(Cl)cc1Cl)C(C)NC(=O)c1cn(C)nc1C(F)F` (stereo not drawn) [(10), 3-(difluoromethyl)-1-methyl-1H-pyrazole-4-carboxylic acid [2-(2,4-dichlorophenyl)-2-methoxy-1-methyl-ethyl]-amide], under “0.4 ppm a.i.”, the “Efficacy in % found” value worked out at 18%.

With `Cn1c(=O)c2sc3c(=O)n(C)c(=O)c3sc2c1=O` [(I-1), 2,6-dimethyl-1H,5H-[1,4]dithiino[2,3-c:5,6-c′]dipyrrole-1,3,5,7(2H,6H)-tetrone], the “Efficacy in % found” value is recorded as 46% (20 ppm a.i.) and 65% (40 ppm a.i.).

These data come from US9192161B2, “Fungicidal combinations comprising a dithiino-tetracarboxamide fungicide” (BAYER INTELLECTUAL PROPERTY GMBH, priority 2011, dated 2015).
